Results taken from patent US8796245B2 (TetraPhase Pharmaceuticals, Inc., priority 2008, dated 2014).
Values after ≈ are worked out from the molar mass of the structure shown.

Legend:
[1] = Protein binding in human plasma (RED devices); type: in vitro ADME; details: % Protein binding in human plasma with compound at 10 uM
Description: Test compounds were prepared as 1.0 mg/mL stock solutions in DMSO. The analytes and internal standard were diluted and infused into the LC/MS system to determine optimal ionization, polarity and MS/MS fragmentation for selection of specific MRM (multiple reaction monitoring) transitions. Generic chromatographic conditions were developed with a less than 5 minute cycle time.
[…] The time point was removed at the end of the incubation period. After a protein crash with acetonitrile, the samples were analyzed by LC/MS/MS. Peak areas for the buffer (receiver) and sample (donor) chambers were compared and the protein bound fraction is calculated. Analysis was conducted in duplicate.

[2] = Metabolic stability, pooled human microsome assay; type: in vitro ADME; details: % compound remaining after 60 min, 37° C. incubation with human liver microsomes
Description: A stock solution of the test compounds were prepared by dissolving the compound in DMSO to a final concentration of 1.0 mg/mL. The analytes and internal standard were diluted and infused into the LC/MS system to determine optimal ionization, polarity and MS/MS fragmentation for selection of specific MRM (multiple reaction monitoring) transitions. Generic chromatographic conditions were developed with a less than 5 minute cycle time. Pooled human microsome assays were conducted at 0.2 mg/mL protein with an NADPH generating cofactor system (1.3 mM NADP+, 3.3 mM glucose-6-phosphate, 0.4 U/mL glucose-6-phosphate dehydrogenase, and 3.3 mM magnesium chloride). Test compounds were diluted from DMSO stocks to 1 μM reaction concentrations. Time points were removed at 0 and 60 minutes. After a protein crash with acetonitrile, samples are analyzed by LC/MS/MS. Peak areas are compared to the time 0 sample, and the percent analyte remaining is calculated. A reaction containing no cofactor was used to control for analyte loss due to non-specific binding, thermal degradation and solubility.

[3] = system: clinical isolates of S. aureus; test: SA MIC90; type: cell-based; details: Staphylococcus aureus; inhibit 90% of S. aureus clinical isolates (n = 20); read-out: SA MIC 90
Description: Twenty randomly selected clinical isolates of S. aureus were used to determine the minimal inhibitory concentration (MIC) of test compounds for 90% of the isolates (MIC90). MICs were performed by microtiter broth dilution in a 96-well format according to Clinical Laboratory Standards Institute (CLSI) guidelines, as described above. Viable counts were determined by 10-fold serial dilution. Dilutions were prepared in sterile 0.9% NaCl. Ten microliters of the inoculum and of each of 5 dilutions were plated onto blood or Mueller Hinton agar plates, incubated overnight at 37° C. with 5% CO2, and counted.

E. coli ATCC 25922 = test: GN sepsis study, mouse systemic infection model; type: in vivo; details: mg/kg required to protect 50% of mice in septicemia model with E. coli strain
Description: (§1) Compounds of the present invention were evaluated for efficacy in a mouse systemic infection model against a susceptible S. aureus isolate, ATCC 13709. Mice were infected via intraperitoneal injection with a bacterial load that would result in 0% survival within 48 hours after infection. Mice received the test compounds 60 minutes post infection via intravenous injection. […] Survival was assessed over a 48 hour period. Percent survival was calculated and PD50 values determined using Probit analysis. The protocol for GN sepsis study was similar to the protocol for EV50 IV study described above except the infection model used E. coli ATCC 25922.

[4] = system: clinical isolates of E. coli; test: EC MIC90; type: cell-based; details: Escherichia coli; inhibit 90% of E. coli clinical isolates (n = 20); read-out: EC MIC 90
Description: (§2) Twenty randomly selected clinical isolates of S. aureus were used to determine the minimal inhibitory concentration (MIC) of test compounds for 90% of the isolates (MIC90). MICs were performed by microtiter broth dilution in a 96-well format according to Clinical Laboratory Standards Institute (CLSI) guidelines, as described above. Twenty randomly selected clinical isolates of E. coli were used to determine the MIC90 as described above.

S. aureus ATCC 13709 = test: Thigh burden, neutropenic mouse thigh infection; type: in vivo; details: maximum log10 reduction in bacteria compared to untreated control, achieved at tested doses; neutropenic mice, IV
Description: Female CD-1 mice were pre-treated with cyclophosphamide to render the mice neutropenic. Mice were infected with S. aureus ATCC 13709 via injection into the right thigh muscle of 0.1 ml per mouse. One and a half hours post infection mice were treated IV with test compounds in doses ranging from 0.3 to 30 mg/kg or 0.3 to 20 mg/kg. Four mice were treated with each drug concentration. Twenty-four hours post treatment, mice were euthanized by CO2 inhalation. The right thighs of the mice were aseptically removed, weighed, homogenized, serially diluted, and plated on TSA medium. The plates were incubated overnight at 37° C. in 5% CO2. Colony forming units per gram of thigh was calculated by enumerating the plated colonies then adjusting for serial dilutions and the weight of the thigh.

[5] = system: tetracycline-resistant S. aureus; test: TetR MIC90; type: cell-based; details: Staphylococcus aureus; inhibit 90% of tetracycline-resistant S. aureus (n = 10); read-out: TetR MIC 90
Description: as §2, with “above.” for “above. Twenty randomly selected clinical isolates of E. coli were used to determine the MIC90 as described above.”

[6] = system: S. aureus SA161, a tetracycline-resistant strain; test: Tet-R sepsis study, mouse systemic infection model; type: in vivo; details: mg/kg required to protect 50% of mice in septicemia model with tetracycline-resistant S. aureus strain
Description: as §1, with “analysis.” for “analysis. The protocol for GN sepsis study was similar to the protocol for EV50 IV study described above except the infection model used E. coli ATCC 25922.”
The protocol for tetracycline-resistance sepsis study was similar to the protocol for EV50 IV study described above except the infection model used S. aureus SA161, a tetracycline-resistant strain.

[7] = system: S. aureus isolate, ATCC 13709; test: ED50 IV study, mouse systemic infection model; type: in vivo; details: Staphylococcus aureus, ATCC13709, mg/kg required to protect 50% of mice in septicemia model with S. aureus Smith strain, 60 minutes post infection, 48 hour survival
Description: as §1, with “analysis.” for “analysis. The protocol for GN sepsis study was similar to the protocol for EV50 IV study described above except the infection model used E. coli ATCC 25922.”

Structure (SMILES) | Prot Bind % [1] [%] | Meta Stab % [2] [%] | MIC90 [3] [µg/mL] | GN sepsis (E. coli ATCC 25922) [mg/kg] | MIC90 [4] [µg/mL] | Thigh Burden (S. aureus ATCC 13709) [log10 decrease] | MIC90 [5] [µg/mL] | TetR sepsis [6] [mg/kg] | ED50 [7] [mg/kg]
CN(C)c1cc(NC(=O)CNC(C)(C)C)c(O)c2c1C[C@H]1C[C@H]3[C@H](N(C)C)C(O)=C(C(N)=O)C(=O)[C@@]3(O)C(O)=C1C2=O | 69.1 | 55 | 0.06 (≈ 0.102 µM) | 2.1 | 0.5 (≈ 0.854 µM) | 4.89 | 1 (≈ 1.71 µM) | 0.55 | 0.97
CC(C)CNCC(=O)Nc1cc(F)c2c(c1O)C(=O)C1=C(O)[C@]3(O)C(=O)C(C(N)=O)=C(O)[C@@H](N(C)C)[C@@H]3C[C@@H]1C2 [drawing 215] | 95.6 | 72 | 0.03 (≈ 0.0535 µM) | 14.3 | 1 (≈ 1.78 µM) | 5.01 | 4 (≈ 7.14 µM) | 3.5 | 0.55
CN(C)[C@@H]1C(O)=C(C(N)=O)C(=O)[C@@]2(O)C(O)=C3C(=O)c4c(O)c(NC(=O)CN5CCC5)cc(F)c4C[C@H]3C[C@@H]12 [drawing 216] | 87.1 | 85 | 0.03 (≈ 0.0551 µM) | – | 0.5 (≈ 0.918 µM) | – | 4 (≈ 7.35 µM) | – | 0.07
CN(C)CC(=O)Nc1cc(F)c2c(c1O)C(=O)C1=C(O)[C@]3(O)C(=O)C(C(N)=O)=C(O)[C@@H](N(C)C)[C@@H]3C[C@@H]1C2 [drawing 220] | 93.6 | 109 | 0.06 (≈ 0.113 µM) | 4.3 | 4 (≈ 7.51 µM) | 4.12 | 4 (≈ 7.51 µM) | 0.62 | 0.073
CN(C)[C@@H]1C(O)=C(C(N)=O)C(=O)[C@@]2(O)C(O)=C3C(=O)c4c(O)c(NC(=O)CN5CCCC5)cc(F)c4C[C@H]3C[C@@H]12 [drawing 217] | 79.4 | 86 | 0.03 (≈ 0.0537 µM) | 4.36 | 0.5 (≈ 0.895 µM) | 5.24 | 2 (≈ 3.58 µM) | 1 | 0.3
CC(C)NCC(=O)Nc1cc(F)c2c(c1O)C(=O)C1=C(O)[C@]3(O)C(=O)C(C(N)=O)=C(O)[C@@H](N(C)C)[C@@H]3C[C@@H]1C2 [drawing 219] | 96.9 | 96 | 0.06 (≈ 0.11 µM) | – | 1 (≈ 1.83 µM) | – | 2 (≈ 3.66 µM) | – | 0.3
CN(C)[C@@H]1C(O)=C(C(N)=O)C(=O)[C@@]2(O)C(O)=C3C(=O)c4c(O)c(NC(=O)CNCC5CC5)cc(F)c4C[C@H]3C[C@@H]12 [drawing 218] | 87.9 | 65 | 0.03 (≈ 0.0537 µM) | – | 2 (≈ 3.58 µM) | – | 8 (≈ 14.3 µM) | – | 0.55
CN(C)[C@@H]1C(O)=C(C(N)=O)C(=O)[C@@]2(O)C(O)=C3C(=O)c4c(O)c(NC(=O)CNC(C)(C)C)cc(F)c4C[C@H]3C[C@@H]12 [drawing 214] | 90 | 104 | 0.03 (≈ 0.0535 µM) | 6.2 | 0.5 (≈ 0.892 µM) | 4.41 | 2 (≈ 3.57 µM) | 0.4 | 0.3
